Results reported in BindingDB's records for doi:10.1016/j.bioorg.2014.07.011 (Shenyang Pharmaceutical University, 2014).
Blank lines part the entries; values can stand above or below the compound they belong to.

Key:
Assay in all cases: HTRF kinase assay
Settings in all cases: pH 7; 25 °C
[1] = biological target: Hepatocyte growth factor receptor (Homo sapiens, UniProt P08581)
Procedure: The c-Met kinase activity was evaluated by homogeneous time-resolved fluorescence (HTRF) assays. In a 384-well plate, 20 µg/mL (Glue, Tyr) 4:1 was added, followed by the addition of 50 µL of 10 mM ATP solution diluted in kinase reaction buffer (50 mM HEPES, pH 7.0, […], and 0.1% NaN3) into each well. Various concentrations of compounds diluted in 10 µL of 1% DMSO (v/v) […]. The reaction was initiated by the addition of purified c-Met kinase diluated in 39 µL of kinase reaction buffer solution. The reaction was incubated for 30 min at 25 °C and stopped by the addition of 5 µL of Streptavidin-XL665 and 5 µL Tk Antibody Cryptate working solution to all of the wells.

[2] = biological target: T1, Receptor-type tyrosine-protein kinase FLT3 (Homo sapiens, UniProt P36888)
T1 sequence (P36888 whole entry): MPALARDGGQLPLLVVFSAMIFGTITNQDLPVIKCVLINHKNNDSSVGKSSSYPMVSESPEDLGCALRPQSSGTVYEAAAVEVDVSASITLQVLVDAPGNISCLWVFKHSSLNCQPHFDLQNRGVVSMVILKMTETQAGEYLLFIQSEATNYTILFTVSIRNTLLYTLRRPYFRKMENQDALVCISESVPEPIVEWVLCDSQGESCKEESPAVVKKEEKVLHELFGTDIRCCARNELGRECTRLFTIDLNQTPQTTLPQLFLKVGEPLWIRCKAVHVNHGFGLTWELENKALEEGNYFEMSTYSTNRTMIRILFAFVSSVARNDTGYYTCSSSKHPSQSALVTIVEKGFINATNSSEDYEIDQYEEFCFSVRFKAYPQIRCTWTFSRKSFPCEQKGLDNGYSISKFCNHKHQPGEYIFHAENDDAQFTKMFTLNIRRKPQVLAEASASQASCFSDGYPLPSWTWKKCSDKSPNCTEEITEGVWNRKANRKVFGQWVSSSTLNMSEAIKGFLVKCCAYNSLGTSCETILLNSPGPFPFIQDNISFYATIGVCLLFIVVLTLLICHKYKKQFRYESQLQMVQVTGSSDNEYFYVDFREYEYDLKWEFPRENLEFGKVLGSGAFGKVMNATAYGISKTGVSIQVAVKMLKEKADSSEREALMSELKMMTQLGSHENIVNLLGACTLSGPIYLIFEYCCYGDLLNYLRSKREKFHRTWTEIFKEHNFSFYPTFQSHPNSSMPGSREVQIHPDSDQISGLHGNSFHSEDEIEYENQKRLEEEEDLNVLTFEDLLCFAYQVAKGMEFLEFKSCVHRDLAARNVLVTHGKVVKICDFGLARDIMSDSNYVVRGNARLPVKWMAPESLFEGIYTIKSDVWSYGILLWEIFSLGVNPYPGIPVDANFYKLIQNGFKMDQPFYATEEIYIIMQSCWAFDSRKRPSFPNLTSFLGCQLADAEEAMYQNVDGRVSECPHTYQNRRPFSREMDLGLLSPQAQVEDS

[3] = biological target: T2, Epidermal growth factor receptor [1-973] (Homo sapiens, UniProt P00533)
T2 construct: 1-973
T2 sequence (P00533 1-973): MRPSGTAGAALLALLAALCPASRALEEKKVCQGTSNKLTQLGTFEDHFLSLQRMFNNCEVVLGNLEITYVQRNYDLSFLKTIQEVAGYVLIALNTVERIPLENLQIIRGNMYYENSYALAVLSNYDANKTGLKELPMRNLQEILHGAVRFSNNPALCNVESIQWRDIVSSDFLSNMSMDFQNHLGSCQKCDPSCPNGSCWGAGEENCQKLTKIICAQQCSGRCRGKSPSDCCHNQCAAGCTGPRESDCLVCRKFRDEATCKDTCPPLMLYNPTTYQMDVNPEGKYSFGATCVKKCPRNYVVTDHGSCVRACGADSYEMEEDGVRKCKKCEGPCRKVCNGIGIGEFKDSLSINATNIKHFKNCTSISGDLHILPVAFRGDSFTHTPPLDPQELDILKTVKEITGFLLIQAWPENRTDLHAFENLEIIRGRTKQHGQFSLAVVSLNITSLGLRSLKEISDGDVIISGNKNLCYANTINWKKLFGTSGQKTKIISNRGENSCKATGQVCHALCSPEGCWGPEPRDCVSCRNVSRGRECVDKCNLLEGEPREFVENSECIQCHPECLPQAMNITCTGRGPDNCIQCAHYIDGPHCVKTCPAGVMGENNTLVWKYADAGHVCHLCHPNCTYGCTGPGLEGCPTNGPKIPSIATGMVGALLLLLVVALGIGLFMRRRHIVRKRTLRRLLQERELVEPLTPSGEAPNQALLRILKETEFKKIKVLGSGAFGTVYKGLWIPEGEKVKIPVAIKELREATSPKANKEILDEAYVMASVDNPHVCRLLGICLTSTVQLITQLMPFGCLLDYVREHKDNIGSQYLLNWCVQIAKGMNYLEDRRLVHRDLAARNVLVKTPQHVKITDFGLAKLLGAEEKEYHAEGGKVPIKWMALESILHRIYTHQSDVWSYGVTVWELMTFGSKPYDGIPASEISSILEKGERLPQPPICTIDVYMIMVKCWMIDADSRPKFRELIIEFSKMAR

[4] = biological target: Vascular endothelial growth factor receptor 2 (Homo sapiens, UniProt P35968)
[5] = biological target: Macrophage-stimulating protein receptor (Homo sapiens, UniProt Q04912)
Chain of Macrophage-stimulating protein receptor (Q04912 25-304 limits assumed): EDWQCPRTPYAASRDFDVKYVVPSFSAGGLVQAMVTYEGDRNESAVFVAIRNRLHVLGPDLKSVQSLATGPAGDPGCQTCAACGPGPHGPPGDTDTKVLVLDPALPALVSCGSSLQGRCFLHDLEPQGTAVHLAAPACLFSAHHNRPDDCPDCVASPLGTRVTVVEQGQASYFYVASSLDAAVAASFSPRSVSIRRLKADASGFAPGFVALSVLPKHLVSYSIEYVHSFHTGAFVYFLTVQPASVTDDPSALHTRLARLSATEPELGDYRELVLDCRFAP
Chain of Macrophage-stimulating protein receptor (Q04912 310-1400 limits assumed): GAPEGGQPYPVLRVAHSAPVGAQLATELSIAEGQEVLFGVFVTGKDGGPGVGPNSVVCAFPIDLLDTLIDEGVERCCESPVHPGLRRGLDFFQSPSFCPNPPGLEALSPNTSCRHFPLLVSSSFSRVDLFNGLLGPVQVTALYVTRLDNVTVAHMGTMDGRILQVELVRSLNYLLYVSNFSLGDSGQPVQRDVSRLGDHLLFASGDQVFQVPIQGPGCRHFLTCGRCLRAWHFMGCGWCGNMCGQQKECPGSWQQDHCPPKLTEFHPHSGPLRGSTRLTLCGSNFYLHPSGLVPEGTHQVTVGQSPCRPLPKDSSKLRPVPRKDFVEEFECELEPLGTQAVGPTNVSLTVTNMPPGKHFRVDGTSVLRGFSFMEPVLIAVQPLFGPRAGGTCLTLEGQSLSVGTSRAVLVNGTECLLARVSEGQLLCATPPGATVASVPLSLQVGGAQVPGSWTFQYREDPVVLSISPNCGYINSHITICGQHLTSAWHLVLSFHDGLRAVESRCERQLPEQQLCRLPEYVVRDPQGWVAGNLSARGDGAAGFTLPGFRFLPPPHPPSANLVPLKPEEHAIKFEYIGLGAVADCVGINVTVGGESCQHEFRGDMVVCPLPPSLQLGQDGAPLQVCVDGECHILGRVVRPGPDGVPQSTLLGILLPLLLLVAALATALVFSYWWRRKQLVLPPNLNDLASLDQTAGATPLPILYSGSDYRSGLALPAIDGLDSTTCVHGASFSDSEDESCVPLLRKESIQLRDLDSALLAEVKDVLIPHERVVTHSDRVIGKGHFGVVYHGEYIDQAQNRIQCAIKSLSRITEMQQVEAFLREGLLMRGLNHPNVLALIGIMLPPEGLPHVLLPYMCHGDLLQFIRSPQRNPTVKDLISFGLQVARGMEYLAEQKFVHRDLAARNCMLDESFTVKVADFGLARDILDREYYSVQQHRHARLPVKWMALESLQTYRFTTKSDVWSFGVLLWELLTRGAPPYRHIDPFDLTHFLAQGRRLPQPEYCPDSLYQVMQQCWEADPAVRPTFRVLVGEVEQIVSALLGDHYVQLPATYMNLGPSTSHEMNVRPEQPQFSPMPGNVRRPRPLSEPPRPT

[6] = biological target: T3, Platelet-derived growth factor receptor alpha [1-973] (Homo sapiens, UniProt P16234)
T3 construct: 1-973

[7] = biological target: T4, Mast/stem cell growth factor receptor Kit [1-973] (Homo sapiens, UniProt P10721)
T4 construct: 1-973
T4 sequence (P10721 1-973): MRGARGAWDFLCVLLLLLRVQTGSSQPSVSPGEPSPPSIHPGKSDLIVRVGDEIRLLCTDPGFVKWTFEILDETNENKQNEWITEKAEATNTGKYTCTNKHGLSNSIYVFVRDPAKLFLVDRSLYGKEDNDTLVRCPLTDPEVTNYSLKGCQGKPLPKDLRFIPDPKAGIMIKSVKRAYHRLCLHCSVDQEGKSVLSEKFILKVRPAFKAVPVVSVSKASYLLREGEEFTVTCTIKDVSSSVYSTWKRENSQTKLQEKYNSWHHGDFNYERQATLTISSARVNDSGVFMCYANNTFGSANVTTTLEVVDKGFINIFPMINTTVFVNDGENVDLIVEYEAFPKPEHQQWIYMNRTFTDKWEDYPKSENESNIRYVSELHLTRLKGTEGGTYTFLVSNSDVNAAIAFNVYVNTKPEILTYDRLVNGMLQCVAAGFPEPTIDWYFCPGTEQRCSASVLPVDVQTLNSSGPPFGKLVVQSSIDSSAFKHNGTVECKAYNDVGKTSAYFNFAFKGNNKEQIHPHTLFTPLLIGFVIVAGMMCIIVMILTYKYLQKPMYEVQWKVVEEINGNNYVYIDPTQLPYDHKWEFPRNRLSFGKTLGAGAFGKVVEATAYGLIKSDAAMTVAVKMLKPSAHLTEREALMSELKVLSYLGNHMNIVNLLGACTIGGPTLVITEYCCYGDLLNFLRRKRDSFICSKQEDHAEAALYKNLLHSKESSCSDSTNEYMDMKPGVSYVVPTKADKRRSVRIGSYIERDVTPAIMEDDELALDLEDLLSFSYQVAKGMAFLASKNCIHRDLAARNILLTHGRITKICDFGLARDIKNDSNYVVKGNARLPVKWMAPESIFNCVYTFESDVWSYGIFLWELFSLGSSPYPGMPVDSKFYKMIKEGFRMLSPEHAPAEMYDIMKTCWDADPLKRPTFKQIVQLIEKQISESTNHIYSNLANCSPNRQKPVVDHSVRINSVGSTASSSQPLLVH

[8] = biological target: Vascular endothelial growth factor receptor 1 (Homo sapiens, UniProt P17948)

Chain of Hepatocyte growth factor receptor (P08581 whole entry): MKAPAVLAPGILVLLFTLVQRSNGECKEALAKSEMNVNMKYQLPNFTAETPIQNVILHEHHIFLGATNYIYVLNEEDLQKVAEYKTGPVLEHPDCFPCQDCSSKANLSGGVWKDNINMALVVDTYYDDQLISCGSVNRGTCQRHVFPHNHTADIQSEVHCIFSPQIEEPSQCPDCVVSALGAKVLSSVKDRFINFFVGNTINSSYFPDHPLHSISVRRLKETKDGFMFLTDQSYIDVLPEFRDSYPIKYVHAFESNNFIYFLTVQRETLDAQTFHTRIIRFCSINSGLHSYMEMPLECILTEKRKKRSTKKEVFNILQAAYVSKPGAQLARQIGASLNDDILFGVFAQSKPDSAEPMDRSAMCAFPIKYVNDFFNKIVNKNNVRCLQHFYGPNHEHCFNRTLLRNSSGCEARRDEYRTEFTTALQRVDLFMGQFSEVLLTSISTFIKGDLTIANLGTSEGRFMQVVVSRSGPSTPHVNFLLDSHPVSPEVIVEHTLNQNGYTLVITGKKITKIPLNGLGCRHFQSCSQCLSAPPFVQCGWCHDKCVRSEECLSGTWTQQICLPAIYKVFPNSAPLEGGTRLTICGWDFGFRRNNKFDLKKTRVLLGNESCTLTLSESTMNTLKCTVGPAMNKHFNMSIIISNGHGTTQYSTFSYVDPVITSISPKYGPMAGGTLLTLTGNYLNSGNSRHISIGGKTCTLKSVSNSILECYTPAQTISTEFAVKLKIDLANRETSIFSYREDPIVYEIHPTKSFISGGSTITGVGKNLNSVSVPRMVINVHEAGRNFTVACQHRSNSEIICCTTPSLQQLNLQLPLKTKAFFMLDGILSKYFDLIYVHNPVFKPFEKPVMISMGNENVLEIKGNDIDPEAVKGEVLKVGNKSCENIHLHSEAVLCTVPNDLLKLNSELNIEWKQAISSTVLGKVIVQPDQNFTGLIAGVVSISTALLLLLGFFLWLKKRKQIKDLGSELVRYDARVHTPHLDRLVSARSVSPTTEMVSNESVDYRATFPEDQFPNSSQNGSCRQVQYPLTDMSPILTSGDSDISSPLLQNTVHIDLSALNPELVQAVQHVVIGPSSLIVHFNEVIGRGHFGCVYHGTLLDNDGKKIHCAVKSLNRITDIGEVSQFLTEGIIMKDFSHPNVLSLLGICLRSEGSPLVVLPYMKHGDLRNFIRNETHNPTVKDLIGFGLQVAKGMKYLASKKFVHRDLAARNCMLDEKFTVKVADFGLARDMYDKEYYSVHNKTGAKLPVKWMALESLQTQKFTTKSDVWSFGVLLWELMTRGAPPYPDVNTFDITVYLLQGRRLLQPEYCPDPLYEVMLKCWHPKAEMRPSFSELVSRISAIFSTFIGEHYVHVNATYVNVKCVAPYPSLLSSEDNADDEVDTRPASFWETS

SMILES: COc1cc2c(Oc3ccc(N=Cc4c(O)n(-c5ccccc5F)c(=O)n4C)cc3F)ccnc2cc1OCCCN1CCOCC1 [(E)-5-(((3-fluoro-4-((6-methoxy-7-(3-morpholinopropoxy)quinolin-4-yl)oxy)phenyl)amino)methylene)-3-(2-fluorophenyl)-1-methylimidazolidine-2,4-dione (40)]
IC50 [1]: 8.78 nM

SMILES: COc1cc2c(Oc3ccc(N=Cc4c(C)[nH]n(-c5ccccc5C(F)(F)F)c4=O)cc3F)ccnc2cc1OCCCN1CCCCC1 [(Z)-4-(((3-fluoro-4-((6-methoxy-7-(3-(piperidin-1-yl)propoxy)quinolin-4-yl)oxy)phenyl)amino)methylene)-3-methyl-1-(2-(trifluoromethyl)phenyl)-1H-pyrazol-5(4H)-one (21)]
IC50 [1]: 6.63 nM

SMILES: COc1cc2c(Oc3ccc(N=Cc4c(C)[nH]n(-c5ccccc5C(F)(F)F)c4=O)cc3F)ccnc2cc1OCCCN1CCOCC1 [(Z)-4-(((3-fluoro-4-((6-methoxy-7-(3-morpholinopropoxy)quinolin-4-yl)oxy)phenyl)amino)methylene)-3-methyl-1-(2-(trifluoromethyl)phenyl)-1H-pyrazol-5(4H)-one (17)]
IC50 [1]: 2.2 nM
IC50 [2]: 8.38 nM
IC50 [3]: > 10000 nM
IC50 [4]: 326 nM
IC50 [5]: 4.24 nM
IC50 [6]: 32.2 nM
IC50 [7]: 2.3 nM
IC50 [8]: 8.56 nM

Other lines, results leading:

IC50 [1]: 2.75 nM
SMILES: COc1cc2c(Oc3ccc(N=Cc4c(O)n(-c5ccccc5C(F)(F)F)c(=O)n4C)cc3F)ccnc2cc1OCCCN1CCCC1 [(E)-5-(((3-fluoro-4-((6-methoxy-7-(3-(pyrrolidin-1-yl)propoxy)quinolin-4-yl)oxy)phenyl)amino)methylene)-1-methyl-3-(2-(trifluoromethyl)phenyl)imidazolidine-2,4-dione (38)]

IC50 [1]: 5.04 nM
SMILES: COc1cc2c(Oc3ccc(N=Cc4c(C)[nH]n(-c5ccccc5C(F)(F)F)c4=O)cc3F)ccnc2cc1OCCCN1CCCC1 [(Z)-4-(((3-fluoro-4-((6-methoxy-7-(3-(pyrrolidin-1-yl)propoxy)quinolin-4-yl)oxy)phenyl)amino)methylene)-3-methyl-1-(2-(trifluoromethyl)phenyl)-1H-pyrazol-5(4H)-one (13)]
